Read-outs that look alike come from different tables or passages of the source.
What was measured:
Assay type in all cases: biochemical
BChE (EC 3.1.1.8) = BChE (EC 3.1.1.8) (Homo sapiens, UniProt P06276); experiment: In vitro BChE inhibition assay
MAO-A = biological target: T1, MAO-A (Homo sapiens, UniProt P21397); experiment: In vitro MAO-A inhibition assay
T1 sequence (P21397 1-527): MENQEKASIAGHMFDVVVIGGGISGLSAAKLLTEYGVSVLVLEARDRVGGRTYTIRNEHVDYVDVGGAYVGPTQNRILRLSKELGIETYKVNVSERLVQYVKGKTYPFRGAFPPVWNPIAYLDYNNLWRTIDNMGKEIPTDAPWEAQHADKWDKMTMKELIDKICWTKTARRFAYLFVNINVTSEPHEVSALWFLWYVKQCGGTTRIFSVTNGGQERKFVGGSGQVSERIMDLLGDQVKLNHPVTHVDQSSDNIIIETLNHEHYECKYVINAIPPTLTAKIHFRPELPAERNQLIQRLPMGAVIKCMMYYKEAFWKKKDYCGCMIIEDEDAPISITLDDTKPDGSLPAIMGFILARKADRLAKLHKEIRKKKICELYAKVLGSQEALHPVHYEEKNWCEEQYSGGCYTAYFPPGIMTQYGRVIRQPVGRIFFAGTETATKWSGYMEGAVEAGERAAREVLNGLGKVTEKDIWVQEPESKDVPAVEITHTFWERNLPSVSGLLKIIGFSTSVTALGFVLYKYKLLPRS

[1] = biological target: AChE (EC Number: 3.1.1.7.) (Homo sapiens, UniProt P22303); experiment: In vitro AChE inhibition assay
MAO-B = biological target: T2, MAO-B (Homo sapiens, UniProt P27338); experiment: In vitro MAO-B inhibition assay
T2 sequence (P27338 1-520): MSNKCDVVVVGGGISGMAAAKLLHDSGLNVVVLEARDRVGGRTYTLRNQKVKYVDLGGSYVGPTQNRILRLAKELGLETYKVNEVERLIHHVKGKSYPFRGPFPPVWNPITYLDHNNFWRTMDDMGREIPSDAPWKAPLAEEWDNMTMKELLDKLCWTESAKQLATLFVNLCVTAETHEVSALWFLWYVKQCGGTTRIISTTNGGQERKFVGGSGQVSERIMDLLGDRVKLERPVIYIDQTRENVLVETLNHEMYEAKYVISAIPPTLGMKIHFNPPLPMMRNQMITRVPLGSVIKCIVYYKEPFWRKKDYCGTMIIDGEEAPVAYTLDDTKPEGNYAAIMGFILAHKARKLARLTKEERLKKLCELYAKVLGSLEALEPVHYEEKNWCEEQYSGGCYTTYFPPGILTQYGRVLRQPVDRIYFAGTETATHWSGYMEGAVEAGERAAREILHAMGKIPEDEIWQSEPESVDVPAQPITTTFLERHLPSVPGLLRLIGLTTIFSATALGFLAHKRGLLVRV

[2] = biological target: T3, Cyclooxygenase (COX-2) from human recombinant (Homo sapiens, UniProt P35354); experiment: biochemical
T3 sequence (P35354 18-604): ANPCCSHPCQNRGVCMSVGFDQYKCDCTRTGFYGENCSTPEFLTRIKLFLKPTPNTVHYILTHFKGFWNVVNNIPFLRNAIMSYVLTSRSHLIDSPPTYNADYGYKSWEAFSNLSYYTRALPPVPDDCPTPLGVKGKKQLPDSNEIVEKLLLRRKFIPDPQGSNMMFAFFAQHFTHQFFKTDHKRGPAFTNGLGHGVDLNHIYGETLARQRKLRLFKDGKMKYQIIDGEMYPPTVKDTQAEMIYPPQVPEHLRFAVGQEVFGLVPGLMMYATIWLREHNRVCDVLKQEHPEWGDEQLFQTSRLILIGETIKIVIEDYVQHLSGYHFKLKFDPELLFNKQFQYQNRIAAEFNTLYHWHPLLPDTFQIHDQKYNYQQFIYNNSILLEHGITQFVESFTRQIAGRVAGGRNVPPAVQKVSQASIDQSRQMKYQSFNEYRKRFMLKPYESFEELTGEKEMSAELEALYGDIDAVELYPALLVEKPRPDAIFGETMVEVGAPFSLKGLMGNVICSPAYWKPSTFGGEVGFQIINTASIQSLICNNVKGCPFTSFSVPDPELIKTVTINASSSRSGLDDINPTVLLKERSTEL

5-lipoxygenase (5-LOX) = experiment: 5-Lipoxygenase inhibitory assay; details: read-out: IC50 (μM) ± SEM 5-LOX
[3] = read-out: IC50 (μM) ± SEM BChE, ± SEM
[4] = read-out: IC50 (μM) ± SEM MAO-A, ± SEM

Chain of BChE (EC 3.1.1.8) (P06276 29-602, species assumed): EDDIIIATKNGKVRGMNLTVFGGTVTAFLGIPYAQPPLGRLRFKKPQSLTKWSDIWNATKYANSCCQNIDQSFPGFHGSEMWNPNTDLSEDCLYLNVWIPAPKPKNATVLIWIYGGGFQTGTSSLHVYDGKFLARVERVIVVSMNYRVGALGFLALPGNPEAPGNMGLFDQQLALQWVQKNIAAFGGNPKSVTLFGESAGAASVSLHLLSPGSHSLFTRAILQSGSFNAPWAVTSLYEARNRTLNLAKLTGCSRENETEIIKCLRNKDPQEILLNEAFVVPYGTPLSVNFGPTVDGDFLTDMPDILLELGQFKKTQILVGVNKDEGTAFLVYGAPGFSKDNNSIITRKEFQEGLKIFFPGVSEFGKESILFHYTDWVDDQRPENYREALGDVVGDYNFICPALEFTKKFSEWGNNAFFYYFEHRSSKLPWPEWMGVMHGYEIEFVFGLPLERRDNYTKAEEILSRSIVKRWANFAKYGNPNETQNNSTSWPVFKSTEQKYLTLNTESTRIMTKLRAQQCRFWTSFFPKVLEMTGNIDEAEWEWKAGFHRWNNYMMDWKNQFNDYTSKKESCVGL
Chain of AChE (EC Number: 3.1.1.7.) (P22303 32-614): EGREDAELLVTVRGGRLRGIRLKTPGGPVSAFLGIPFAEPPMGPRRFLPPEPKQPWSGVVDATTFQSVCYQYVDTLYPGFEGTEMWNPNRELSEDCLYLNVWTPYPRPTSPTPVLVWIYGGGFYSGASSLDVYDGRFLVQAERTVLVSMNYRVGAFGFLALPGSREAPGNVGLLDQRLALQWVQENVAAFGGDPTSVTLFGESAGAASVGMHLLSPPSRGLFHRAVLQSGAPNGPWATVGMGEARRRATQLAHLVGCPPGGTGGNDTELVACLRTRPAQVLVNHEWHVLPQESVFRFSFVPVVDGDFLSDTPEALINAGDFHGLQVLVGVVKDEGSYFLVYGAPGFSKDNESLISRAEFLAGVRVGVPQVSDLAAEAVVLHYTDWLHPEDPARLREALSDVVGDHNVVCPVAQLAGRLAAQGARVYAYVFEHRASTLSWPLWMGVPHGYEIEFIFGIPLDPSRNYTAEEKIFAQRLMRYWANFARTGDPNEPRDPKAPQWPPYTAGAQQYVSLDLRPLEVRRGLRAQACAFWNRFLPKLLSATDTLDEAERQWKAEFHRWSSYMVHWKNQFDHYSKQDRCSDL

Row | Compound | activity against BChE, in words (BChE (EC 3.1.1.8)) | IC50 (BChE (EC 3.1.1.8); [3]) | IC50 (MAO-A; [4]) | IC50 [1] | inhibition of AChE, in words [1] | IC50 (BChE (EC 3.1.1.8)) | IC50 (MAO-A) | IC50 (MAO-B) | IC50 [2] | activity against COX-2, in words [2] | IC50 (5-lipoxygenase (5-LOX))
1 | 3-(3-(4-(3,5-Bis(2-hydroxyphenyl)-1H-1,2,4-triazol-1-yl)phenyl)-1,8a-dihydro-7H-[1,2,4]triazolo[3,4-b][1,3,4]thiadiazin-6-yl)-7-bromo-3,8a-dihydro-2H-chromen-2-one [Compound 23] | excellent to moderate activity | 14 ± 1.11 µM | 1.32 ± 0.11 µM | – | – | – | – | – | – | – | –
2 | 3-(3-(4-(3,5-Bis(2-hydroxyphenyl)-1H-1,2,4-triazol-1-yl)phenyl)-1,8a-dihydro-7H-[1,2,4]triazolo[3,4-b][1,3,4]thiadiazin-6-yl)-3,10a-dihydro-2H-benzo[g]chromen-2-one [Compound 22] | – | 10.8 ± 0.97 µM | 0.61 ± 0.07 µM | – | – | – | – | – | – | – | –
3 | O=C(O)c1ccc(-n2nc(-c3ccccc3O)nc2-c2ccccc2O)cc1 [Compound 9, deferasirox, reference compound] | excellent to moderate activity | – | – | 0.43 ± 0.05 µM | significant inhibition | 0.11 ± 0.005 µM | 10 ± 1.78 µM | 0.18 ± 0.01 µM | 4.93 ± 0.38 µM | good to moderate activity | 1.28 ± 0.13 µM
4 | 2,2′-(1-(4-(6-(2,4-Dichlorophenyl)-1,8a-dihydro-7H-[1,2,4]triazolo[3,4-b][1,3,4]thiadiazin-3-yl)phenyl)-1H-1,2,4-triazole-3,5-diyl)diphenol [Compound 25] | – | 1.09 ± 0.11 µM | 0.81 ± 0.02 µM | – | – | – | – | – | – | – | –
5 | Oc1ccccc1-c1nc(-c2ccccc2O)n(-c2ccc(-c3nnc4n3N=C(c3ccc(Cl)cc3)CS4)cc2)n1 [Compound 15, 2,2′-(1-(4-(6-(4-Chlorophenyl)-7H-[1,2,4]triazolo[3,4-b][1,3,4]thiadiazin-3-yl)phenyl)-1H-1,2,4-triazole-3,5-diyl)diphenol] | – | – | – | – | – | 3.96 ± 0.22 µM | 3.58 ± 0.56 µM | – | 75.3 ± 3.56 µM | good to moderate activity | –
